EC50 data for eleven molecules are collected here from patent US12454529B2, “Piperazine cyclic ureas” (SIRONAX LTD., priority 2020, dated 2025).

The test system of the first assay is HT-29 cells. Put plainly: HT-29 cell necrosis/necroptosis inhibition (TNF-α + SMAC mimetic + zVAD-FMK; CellTiter-Glo cell viability). The class given is cell-based. To be noted: Homo sapiens, HT-29, 20 h, read-out: EC50 (Cell activity; Necrosis/Necroptosis Inhibitory Activity, Compounds 1-142). In a few lines:
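HT-29 cells (~5,000/well) were switched to FBS-free McCOY's 5A holding TNF-α (10 ng/ml), SMAC mimetic (6 μM) and zVAD-FMK (10 μM), then dosed with a 10-point 1:3 series for 20 h at 37 °C. CellTiter-Glo luminescence gave viability; geometric mean EC50 from duplicates.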
Regarding `Cc1nnnn1-c1ccnc(N2CCN(C(=O)N3N=CC[C@H]3c3cncc(C#N)c3)CC2)n1` [Compound 99, (S)-5-(1-(4-(4-(5-methyl-1H-tetrazol-1-yl)pyrimidin-2-yl)piperazine-1-carbonyl)-4,5-dihydro-1H-pyrazol-5-yl)nicotinonitrile], the concentration for a half-maximal effect (EC50) (as a rule, the concentration needed to bring the measured effect to its halfway point) lay in the range of 0.1 to 100 nM.

The same assay, now with this note: Homo sapiens; HT-29 cells, TNF-α 10 ng/ml + SMAC mimetic 6 μM + zVAD-FMK 10 μM, 20 hours; geometric mean, 10 points in duplicate; read-out: EC50 (Cell activity; Necrosis/Necroptosis Inhibitory Activity, Compounds 1-142).
In the case of `N#Cc1cc(F)cc([C@@H]2CC=NN2C(=O)N2CCN(c3ncc(F)c(-n4cnc(Cl)n4)n3)CC2)c1` [Compound 126, (S)-3-(1-(4-(4-(3-chloro-1H-1,2,4-triazol-1-yl)-5-fluoropyrimidinyl)piperazine-1-carbonyl)-4,5-dihydro-1H-pyrazol-5-yl)-5-fluorobenzonitrile], the EC50 fell in the range of 0.1 to 100 nM. With `Cc1c(-c2nc(N3CCN(C(=O)N4N=CC[C@H]4c4cc(F)cc(C#N)c4)CC3)ncc2F)nnn1CC(N)=O` [Compound 79, (S)-2-(4-(2-(4-(5-(3-cyano-5-fluorophenyl)-4,5-dihydro-1H-pyrazole-1-carbonyl)piperazin-1-yl)-5-fluoropyrimidin-4-yl)-5-methyl-1H-1,2,3-triazol-1-yl)acetamide], the EC50 was 0.1 to 100 nM. On to `Cc1nn(CC(N)=O)cc1-c1nc(N2CCN(C(=O)N3N=CC[C@H]3c3cc(F)cc(F)c3)CC2)ncc1F` [Compound 18, (S)-2-(4-(2-(4-(5-(3,5-difluorophenyl)-4,5-dihydro-1H-pyrazole-1-carbonyl)piperazin-1-yl)-5-fluoropyrimidin-4-yl)-3-methyl-1H-pyrazol-1-yl)acetamide], for which the concentration for a half-maximal effect (EC50) was 0.1 to 100 nM. `Cc1cc(-c2nc(N3CCN(C(=O)N4N=CC[C@H]4c4cc(F)cc(F)c4)CC3)ccc2F)n(C)n1` [Compound 115, (S)-(5-(3,5-difluorophenyl)-4,5-dihydro-1H-pyrazol-1-yl)(4-(6-(1,3-dimethyl-1H-pyrazol-5-yl)-5-fluoropyridin-2-yl)piperazin-1-yl)methanone]: the half-maximal effective concentration (EC50) lay in the range of 0.1 to 100 nM. Still for that read-out and setting: under `O=C(N1CCN(c2ncc(F)c(-n3cnc(Cl)n3)n2)CC1)N1N=CC[C@H]1c1cc(F)cc(F)c1` [Compound 24, (S)-(4-(4-(3-chloro-1H-1,2,4-triazol-1-yl)-5-fluoropyrimidin-2-yl)piperazin-1-yl)(5-(3,5-difluorophenyl)-4,5-dihydro-1H-pyrazol-1-yl)methanone] stands 0.1 to 100 nM; under `N#Cc1cc(F)cc([C@@H]2CC=NN2C(=O)N2CCN(c3ncc(F)c(-n4cc(C(N)=O)cn4)n3)CC2)c1` [Compound 107, (S)-1-(2-(4-(5-(3-cyano-5-fluorophenyl)-4,5-dihydro-1H-pyrazole-1-carbonyl)piperazin-1-yl)-5-fluoropyrimidin-4-yl)-1H-pyrazole-4-carboxamide], 0.1 to 100 nM.

The assay is the same for the next values; noted with them: Homo sapiens; HT-29 cells, TNF-α 10 ng/ml + SMAC mimetic 6 μM + zVAD-FMK 10 μM, 20 hours; geometric mean, 10 points in duplicate; read-out: EC50 (Cell activity; Necrosis/Necroptosis Inhibitory Activity, Compounds 143-323).
On to `Cn1nc(C(=O)O)nc1-c1nc(N2CCN(C(=O)N3N=CCC3c3cc(F)cc(F)c3)CC2)ncc1F` (centres unmarked) [Compound 230, 5-(2-(4-(5-(3,5-difluorophenyl)-4,5-dihydro-1H-pyrazole-1-carbonyl)piperazin-1-yl)-5-fluoropyrimidin-4-yl)-1-methyl-1H-1,2,4-triazole-3-carboxylic acid], for which the EC50 lay in the range of 100 to 1000 nM. On to `Cc1nnc(-c2nc(N3CCN(C(=O)N4N=CC[C@H]4c4cc(F)cc(C#N)c4)CC3)ncc2F)o1` [Compound 188, (S)-3-fluoro-5-(1-(4-(5-fluoro-4-(5-methyl-1,3,4-oxadiazol-2-yl)pyrimidin-2-yl)piperazine-1-carbonyl)-4,5-dihydro-1H-pyrazol-5-yl)benzonitrile], for which the EC50 is 0.1 to 100 nM. In the case of `Cc1c(N)nn(C)c1-c1nc(N2CCN(C(=O)N3N=CC[C@H]3c3cc(F)cc(C#N)c3)CC2)ncc1F` [Compound 153, (S)-3-(1-(4-(4-(3-amino-1,4-dimethyl-1H-pyrazol-5-yl)-5-fluoropyrimidin-2-yl)piperazine-1-carbonyl)-4,5-dihydro-1H-pyrazol-5-yl)-5-fluorobenzonitrile], the EC50 lay within 0.1 to 100 nM. Turning to `Cn1ncnc1-c1nc(N2CCN(C(=O)N3N=CCC3c3ncccc3Cl)CC2)ncc1F` (centres unmarked) [Compound 221], the EC50 was 0.1 to 100 nM.
